Source: patent publication US20220280538A1, “METHODS OF TREATING P53 MUTANT CANCERS USING OGDH INHIBITORS” (MEMORIAL SLOAN KETTERING CANCER CENTER, priority 2019, published 2022)
One block for each compound: values may come before it.

Assays:
OGDH = molecular target: T1, OGDH (Homo sapiens, UniProt Q02218); test: OGDH enzyme inhibition in vitro; assay type: biochemical
T1 sequence (Q02218 41-1023): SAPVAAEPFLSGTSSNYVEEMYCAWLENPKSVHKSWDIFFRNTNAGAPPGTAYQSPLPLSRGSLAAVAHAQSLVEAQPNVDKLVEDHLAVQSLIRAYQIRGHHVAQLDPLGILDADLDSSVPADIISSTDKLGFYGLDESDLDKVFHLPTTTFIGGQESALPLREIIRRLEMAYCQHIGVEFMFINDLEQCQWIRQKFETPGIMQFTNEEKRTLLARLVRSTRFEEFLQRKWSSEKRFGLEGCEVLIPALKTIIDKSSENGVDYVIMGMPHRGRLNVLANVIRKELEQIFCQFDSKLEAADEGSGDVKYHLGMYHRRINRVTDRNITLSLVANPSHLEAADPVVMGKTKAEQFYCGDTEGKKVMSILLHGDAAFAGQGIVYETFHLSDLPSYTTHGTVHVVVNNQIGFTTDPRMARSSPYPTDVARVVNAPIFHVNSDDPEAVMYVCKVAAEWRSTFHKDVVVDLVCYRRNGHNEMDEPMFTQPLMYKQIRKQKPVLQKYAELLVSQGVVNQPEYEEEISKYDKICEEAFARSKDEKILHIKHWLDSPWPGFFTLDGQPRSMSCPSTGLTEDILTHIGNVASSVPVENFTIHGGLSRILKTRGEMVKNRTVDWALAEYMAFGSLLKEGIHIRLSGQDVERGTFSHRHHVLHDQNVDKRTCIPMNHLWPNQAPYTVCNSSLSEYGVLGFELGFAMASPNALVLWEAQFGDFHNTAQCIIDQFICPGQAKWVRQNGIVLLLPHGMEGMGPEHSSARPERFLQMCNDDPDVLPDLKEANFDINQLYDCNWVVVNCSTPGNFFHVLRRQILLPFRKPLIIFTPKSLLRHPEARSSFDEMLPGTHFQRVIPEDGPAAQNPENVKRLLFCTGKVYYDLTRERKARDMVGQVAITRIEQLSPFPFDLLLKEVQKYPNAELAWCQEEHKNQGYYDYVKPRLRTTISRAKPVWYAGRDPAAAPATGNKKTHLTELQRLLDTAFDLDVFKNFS
Text: It is worth noting that there are ongoing clinical trials in hematologic malignancies including AML for a compound designated CPI-613. This drug is an analog of lipoate, a catalytic co-factor and modulator of several metabolic enzymes, including the TCA enzymes pyruvate dehydrogenase (PDH) and OGDH. However, the compound is thought to elicit its anti-cancer effects through an indirect mechanism and may also target additional lipoate-dependent enzymes involved in amino acid catabolism. […] Instead development of specific inhibitors of OGDH was initiated for the purpose of exploiting a known metabolic phenotype mimicking the wt-p53 tumor suppressive effect. These concepts and compounds will be tested in our models of CK AML.

[1] = system: Nras^G12D; Mll-Af9 murine AML cells; test: aKG:succinate ratio in AML cells by GC/MS; assay type: cell-based; details: FIG. 20F
KP^sh cells [2] = test: RNA-Seq / GSEA / qRT-PCR gene expression in KP^sh cells; assay type: cell-based, mouse
Method: qRT-PCR. Total RNA was extracted in triplicate wells from indicated conditions using the RNAeasy Mini Kit (Qiagen) according to manufacturer protocols. cDNA was synthesized from 1 μg of RNA (AffinityScript QPCR cDNA synthesis kit, Agilent) and QPCR amplification performed with SYBR green (Perfecta SYBR green fast mix, QuantaBio) using the following primer pairs on a ViiA 7 Real-Time PCR System (Life technologies). 36B4 was utilized as endogenous control.
RNA-Seq. Total RNA was isolated from duplicate wells of indicated conditions. RNA integrity and concentration were assessed using a BioAnalyzer (Agilent). RNA sequencing libraries were generated using Illumina mRNA TruSeq kit with dual index barcoding. […] Approximately 8 million paired-end 76 bp reads were sequenced per replicate on a HiSeq 2500 instrument on RAPID mode. […] Genome wide transcript counting was performed by HTSeq or featureCounts to generate FPKM matrix. […] Differential expression analysis was performed with DESeq2 package in R^50. Genes with a real adjusted p value were used for downstream analyses.
Gene Set Enrichment Analysis. Gene set enrichment analysis (GSEA) was performed using ranked lists. […] GSEAPreranked version 4 was used with default parameters and data were exported and graphed in GraphPad Prism version 7.

[3] = system: p53 mutant human PDAC cells; test: 5hmC flow cytometry in human PDAC cells; assay type: cell-based; details: 8988 and Panel cells, 4 mM DM-αKG for 72 h
Method: (§1) BrdU, Annexin-V, 5hmC Flow Cytometry Assays. BrdU (BD Pharmigen) and Annexin V (BDPharmigen) analysis was performed in triplicate in cells plated in 6-well dishes under indicated conditions via manufacturers' protocols. 5hmC flow was performed in triplicate in cells plated in 6-well dishes. Briefly, adherent cells were washed with PBS, collected by trypsinization, and fixed on ice for 15 minutes in fixation/permeabilization solution (BD Cat #554714). The cells were then washed with 1× perm/wash buffer (BD Cat #554714) supplemented with 0.1% Triton X, treated with 1× perm/wash buffer supplemented with 0.5% Triton X and 0.5% Nonidet P-40 substitute for 30 minutes. Then, the cells were washed with 1× perm/wash buffer supplemented with 0.1% Triton X, incubated overnight at 4° C. with rabbit anti-5hmC antibody diluted 1:100 in 1× perm/wash buffer supplemented with 0.1% Triton X, washed with 1× perm/wash buffer supplemented with 0.1% Triton X, and incubated for 1 hour at room temperature with goat anti-rabbit Alexa Fluor 700 diluted 1:200 in 1× perm/wash buffer supplemented with 0.1% Triton X. The cells were then washed with 1× perm/wash buffer supplemented with 0.1% Triton X, resuspended in 1× perm/wash buffer, and analyzed.

KP^sh cells [4] = test: ATAC-Seq chromatin accessibility in KP^sh cells; assay type: cell-based, mouse; details: KP^sh cells with dox, cell-permeable αKG
Method: Epigenomic Analysis. 1×10^6 KP^sh cells were washed with PBS and plated on and off dox 8 days (−D8) before collecting cells for ATAC-Seq analysis. Cells maintained on dox and off dox were passaged every 48 h. Three days prior to harvest, dimethyl-α-ketoglutarate (DM-αKG) was added to cells grown on dox, while DMSO was added to cells maintained on dox and cells maintained off dox. All cell groups (On dox, DMSO; On dox, DM-αKG; Off dox, DMSO) were split into 6-well plates in duplicate in fresh media containing dox, DM-αKG, and DMSO as indicated two days prior to harvest. This medium was refreshed 24 h before collection. […] Barcoded libraries were pooled (2-4 samples/lane) and run on an Illumina HiSeq 2500 sequencer using 50 bp paired-end reads.
For data analysis, quality and adapter filtering was applied to raw reads using ‘trim_galore’ before aligning to mouse assembly mm9 with bowtie2 using the default parameters. The Picard tool MarkDuplicates was used to remove reads with the same start site and orientation. The BEDTools suite was used to create read density profiles. Enriched regions were discovered using MACS2 and scored against matched input libraries (fold change >2 and FDR-adjusted p-value <0.1). […] ChIP-seq data were processed in the same way as ATAC-seq data, except read density profiles for ChIP included a read extension equivalent to the average library fragment size. […]

dox-treated KP^sh cells = test: 5hmC flow cytometry in KP^sh cells; assay type: cell-based, mouse; details: KP^sh-2 cells, 4 mM DM-αKG for 72 h
Method: as §1

KP^sh cells [5] = test: αKG/succinate ratio in KP^sh PDAC cells (metabolite profiling); assay type: cell-based, mouse; details: KP^sh cells on dox; 3 μM etoposide or 25 nM trametinib, 48 or 96 hours
Method: Cell Lines and Cell Culture Treatments. KP^sh-1-3 cells were derived from PDAC that developed in three separate Pdx1-Cre; LSL-KrasG12D; Col1a1-TRE-shp53-shRenilla; Rosa26-CAGs-LSL-rtTA-IRES-mKate2 mice generated by blastocyst injection and maintained on doxycycline (dox) chow (625 mg/kg, Harlan Laboratories) 5 days from birth until sacrifice. […] KP^floxRIK cells were derived from PDAC that developed in a p48-Cre; LSL-KrasG12D; p53^flox/+; Rosa26-CAGs-LSL-rtTA-IRES-mKate2 mouse generated by blastocyst injection. KP^R172HRIK cells were derived from tumors that developed in a p48Cre^ER; LSL-KrasG12D; LSL-p53^R172H/+; Rosa26-CAGs-LSL-rtTA-IRES-mKate2 mouse generated by blastocyst injection. […]
Metabolite Profiling. […] Samples were analyzed using an Agilent 7890A GC coupled to Agilent 5975C mass selective detector. […] Peaks representing compounds of interest were extracted and integrated using MassHunter software (Agilent Technologies) and peak area was normalized to the internal standard (d5-2HG) peak area and protein content of duplicate samples as determined by BCA protein assay (Thermo Scientific). Ions used for quantification of metabolite levels are as follows: d5-2HG m/z 354; citrate, m/z 465; αKG, m/z 304; aspartate, m/z 334; fumarate, m/z 245; malate, m/z 335 and succinate, m/z 247. […]

KP^sh cells [6] = test: Cell cycle arrest and senescence (BrdU, SA-β-gal) in KP^sh PDAC cells; assay type: cell-based, mouse; details: KP^sh cells on dox; 3 μM etoposide or 25 nM trametinib, 48 or 96 hours

specificity for OGDH (OGDH): lacks specificity for OGDH
concentration at which OGDH is inhibited (OGDH; in vitro): > 200 µM
SMILES: O=C(O)CCCCC(CCSCc1ccccc1)SCc1ccccc1 (centres unmarked) [CPI-613]
cellular ratio of αKG:succinate [1]: not

SMILES: CC(=O)[O-].[Na+] [acetate, sodium acetate]
induction of pre-malignant associated genes co-regulated by p53 and αKG (qRT-PCR) (KP^sh cells [2]; 4 mM, 72 h): not

SMILES: COC(=O)CCC(=O)C(=O)OC [cell-permeable αKG, dimethyl-α-ketoglutarate]
cellular 5hmC [3]: induced cellular 5hmC
expression of genes enriched in malignant PDAC cells (GSEA) (KP^sh cells [2]): concomitant downregulation of genes enriched in malignant PDAC cells
expression of genes of premalignant PanIN lesions (GSEA) (KP^sh cells [2]): robust increase in expression of genes selectively expressed in cells derived from premalignant PanIN lesions
chromatin accessibility (ATAC-Seq) (KP^sh cells [4]): global increase in chromatin accessibility
cellular 5hmC (dox-treated KP^sh cells): induced cellular 5hmC

SMILES: COc1cc([C@@H]2c3cc4c(cc3[C@@H](O[C@@H]3O[C@@H]5CO[C@@H](C)O[C@H]5[C@H](O)[C@H]3O)[C@H]3COC(=O)[C@H]23)OCO4)cc(OC)c1O [etoposide]
αKG/succinate ratio (KP^sh cells [5]): neither altered the αKG/succinate ratio
cell cycle arrest and senescence (KP^sh cells [6]): triggered cell cycle arrest and senescence
